Source: US20170037007A1, “SUBSTITUTED N-(2-(AMINO)-2OXOETHYL)BENZAMIDE INHIBITORS OF AUTOTAXIN AND THEIR PREPARATION AND USE IN THE TREATMENT OF LPA-DEPENDENT OR LPA-MEDIATED DISEASES” (X-Rx, Inc., priority 2014, published 2017)

biological target: T1, Autotaxin (Homo sapiens, UniProt Q13822); assay: Autotaxin LPC Cascade Assay; assay type: biochemical; details: 5 nM autotaxin, 100 μM LPC, choline oxidase/HRP/Ampliflu Red fluorescence readout; read-out: IC50 ATX activity values, IC50
T1 construct: purchased X-Chem
Protocol: Autotaxin LPC Cascade Assay
HA130 and Test Compounds:
Highest final concentration is […] for HA130 (Echelon, B-0701) and 30 μM for test compounds. Prepare a 1 mM stock of HA130 and a 3 mM stock of each compound in 100% DMSO. Perform a 1:3 serial dilution in DMSO (transfer 5 μl of compound to 10 μl of DMSO). Add 240 μl of buffer to generate a top working concentration of 40 µM (HA130) and 120 µM (test compound) in 4% DMSO.
Ampliflu Red—Prepare a stock of 5 mM from 100 mM in 100% DMSO. Further dilute to a working concentration of 400 μM in buffer (8% DMSO).
Together with compound this yields a 2% DMSO final concentration.
Choline Oxidase/HRP—0.8 U/ml CO and 8 U/ml HRP.
Add 5 μl of ATX and 5 μl of compound in a 384 well plate (Corning 3676). Incubate for 10 mins at RT. Add 5 μl of LPC and incubate for 1 hr on the plate shaker. Prepare the CO/HRP and AR prior to use. Add 2.5 μl of CO/HRP and follow with 2.5 μl AR. Note order of addition, CO/HRP mix before AR. Read fluorescence intensity (λex/λem: 530/590 nm) kinetically for 30 min at RT on the Tecan M1000.

| SMILES | IC50 [nM] |
| --- | --- |
| Cc1cccc(C(=O)N[C@@H](C(=O)N2CCC(C)(N(C)c3ccccc3)CC2)C(C)C)c1 [Example 20, (R)-3-Methyl-N-(3-methyl-1-(4-methyl-4-(methyl(phenyl)amino)piperidin-1-yl)-1-oxobutan-2-yl)benzamide] | 500 to 5000 |
| CC(C)[C@@H](NC(=O)c1cc(OC(F)(F)F)ccc1F)C(=O)N1CCC(C)(Nc2ccccc2)CC1 [Example 10, (R)-2-Fluoro-N-(3-methyl-1-(4-methyl-4-(phenylamino)piperidin-1-yl)-1-oxobutan-2-yl)-5-(trifluoromethoxy)benzamide] | 100 to 500 |
| CCc1ccc(F)c(C(=O)N[C@@H](C(=O)N2CCC(C)(Nc3ccc(S(C)(=O)=O)cc3)CC2)C(C)C)c1 [Example 4, (R)-5-Ethyl-2-fluoro-N-(3-methyl-1-(4-methyl-4-(4-(methylsulfonyl)phenylamino)piperidin-1-yl)-1-oxobutan-2-yl)benzamide] | 10 to 100 |
| CC(=O)Nc1ccc(N(C)C2(C)CCN(C(=O)[C@H](NC(=O)c3cc(C(F)(F)F)ccc3F)C(C)C)CC2)cc1 [Example 19, (R)—N-(1-(4-(4-Acetamidophenyl(methyl)amino)-4-methylpiperidin-1-yl)-3-methyl-1-oxobutan-2-yl)-2-fluoro-5-(trifluoromethyl)benzamide] | 100 to 500 |
| CC(C)[C@@H](NC(=O)c1cc(C(F)(F)F)ccc1F)C(=O)N1CCC(Nc2ccc3[nH]ncc3c2)CC1 [Example 23, (R)—N-(1-(4-(1H-Indazol-5-ylamino)piperidin-1-yl)-3-methyl-1-oxobutan-2-yl)-2-fluoro-5-(trifluoromethyl)benzamide] | 5000 to 10000 |
| CC(C)[C@@H](NC(=O)c1cc(OC(F)(F)F)ccc1F)C(=O)N1CCC(C)(Nc2ccc(C(=O)O)cc2)CC1 [Example 11, (R)-4-((1-(2-(2-Fluoro-5-(trifluoromethoxy)benzamido)-3-methylbutanoyl)-4-methylpiperidin-4-yl)amino)benzoic acic] | 100 to 500 |
| CC(C)[C@@H](NC(=O)c1cc(OC(F)(F)F)ccc1F)C(=O)N1CCC(C)(Nc2ccc(S(C)(=O)=O)cc2)CC1 [Example 6, (R)-2-Fluoro-N-(3-methyl-1-(4-methyl-4-(4-(methylsulfonyl)phenylamino)piperidin-1-yl)-1-oxobutan-2-yl)-5-(trifluoromethoxy)benzamide] | 10 to 100 |
| CC(C)[C@@H](NC(=O)c1cc(C(F)(F)F)ccc1F)C(=O)N1CCC(Nc2ccc(S(C)(=O)=O)cc2)CC1 [Example 22, (R)-2-Fluoro-N-(3-methyl-1-(4-(4-(methylsulfonyl)phenylamino)piperidin-1-yl)-1-oxobutan-2-yl)-5-(trifluoromethyl)benzamide] | ≥ 10000 |
| COc1ccc(F)c(C(=O)N[C@@H](C(=O)N2CCC(C)(Nc3ccc(S(C)(=O)=O)cc3)CC2)C(C)C)c1 [Example 5, (R)-2-Fluoro-5-methoxy-N-(3-methyl-1-(4-methyl-4-(4-(methylsulfonyl)phenylamino)piperidin-1-yl)-1-oxobutan-2-yl)benzamide] | 500 to 5000 |
| Cc1cccc(C(=O)N[C@@H](C(=O)N2CCC(C)(Nc3ccc(C#N)cc3)CC2)C(C)C)c1F [Example 1, (R)—N-(1-(4-(4-Cyanophenylamino)-4-methylpiperidin-1-yl)-3-methyl-1-oxobutan-2-yl)-2-fluoro-3-methylbenzamide] | 500 to 5000 |

Continued, values first:

| IC50 [nM] | SMILES |
| --- | --- |
| 100 to 500 | CC(C)[C@@H](NC(=O)c1cccc(OC(F)(F)F)c1)C(=O)N1CCC(C)(NCc2ccc(S(C)(=O)=O)cc2)CC1 [Example 41, (R)—N-(3-Methyl-1-(4-methyl-4-((4-(methylsulfonyl)benzyl)amino)piperidin-1-yl)-1-oxobutan-2-yl)-3-(trifluoromethoxy)benzamide] |
| 100 to 500 | CC(C)[C@@H](NC(=O)c1cc(C(F)(F)F)ccc1F)C(=O)N1CCC(C)(Nc2ccc(S(C)(=O)=O)cc2)CC1 [Example 27, (R)-2-Fluoro-N-(3-methyl-1-(4-methyl-4-(4-(methylsulfonyl)phenylamino)piperidin-1-yl)-1-oxobutan-2-yl)-5-(trifluoromethyl)benzamide] |
| 10 to 100 | CC(C)Cc1ccc(F)c(C(=O)N[C@@H](C(=O)N2CCC(C)(Nc3ccc(S(C)(=O)=O)cc3)CC2)C(C)C)c1 [Example 31, (R)-2-Fluoro-5-isobutyl-N-(3-methyl-1-(4-methyl-4-(4-(methylsulfonyl)phenylamino)piperidin-1-yl)-1-oxobutan-2-yl)benzamide] |
| ≥ 10000 | CC(C)[C@@H](NC(=O)c1cc(C(F)(F)F)ccc1F)C(=O)N1CCC(Nc2ccc(C(=O)O)cc2)CC1 [Example 24, (R)-4-(1-(2-(2-Fluoro-5-(trifluoromethyl)benzamido)-3-methylbutanoyl)piperidin-4-ylamino)benzoic acid] |
| 100 to 500 | CCc1cc(C(=O)N[C@@H](C(=O)N2CCC(C)(Nc3ccc(S(C)(=O)=O)cc3)CC2)C(C)C)c(F)cc1C [Example 34, (R)-5-Ethyl-2-fluoro-4-methyl-N-(3-methyl-1-(4-methyl-4-(4-(methylsulfonyl)phenylamino)piperidin-1-yl)-1-oxobutan-2-yl)benzamide] |
| 500 to 5000 | COc1ccc(CNC2(C)CCN(C(=O)[C@H](NC(=O)c3cccc(OC(F)(F)F)c3)C(C)C)CC2)cc1 [Example 43, (R)—N-(1-(4-((4-Methoxybenzyl)amino)-4-methylpiperidin-1-yl)-3-methyl-1-oxobutan-2-yl)-3-(trifluoromethoxy)benzamide] |
